Reference: PMC10385743
Like-named read-outs stand apart in the source and are kept apart here.

Legend:
[1] = tested on: HCV GT 3a (strain S52) subgenomic replicon; assay: microbe, parasite or virus in culture; format: cell-based, hepatitis C virus; details: Hepatitis C virus, GT3A, 72 h, luciferase, mean ± SD, read-out: Huh7.5-3a(S52) (HCV Replicon 3a) EC50
[2] = tested on: HCV GT 4a (strain ED43) subgenomic replicon; assay: microbe, parasite or virus in culture; format: cell-based, hepatitis C virus; details: Hepatitis C virus, GT4A, 72 h; luciferase; mean ± SD; read-out: Huh7.5-4a(ED43) (HCV Replicon 4a) EC50
[3] = tested on: YFV (strain 17D) subgenomic replicon; assay: microbe, parasite or virus in culture; format: cell-based, yellow fever virus; details: Yellow fever virus, 72 h, read-out: Huh7-YF (YFV Replicon 17D) EC50
[4] = tested on: DENV serotype 2 (strain 16681) subgenomic replicon; assay: microbe, parasite or virus in culture; format: cell-based, dengue virus; details: Dengue virus, DENV2; 72 h; luciferase; mean ± SD; read-out: Huh7-D2 (DENV-2 Replicon) EC50
[5] = tested on: bloodstream form T. b. brucei (strain 221); details: for increase in activity against T. brucei relative to parent compound: 38, 40, 41 versus parent 36, 42 versus parent 37; for SI (CC50 for L6 cells / EC50 for T. brucei): selectivity index; for EC50: read-out: T. brucei EC50, cultured bloodstream form, mean of triplicate experiments ± SEM
[6] = tested on: T. cruzi (CL Brener strain) epimastigotes; details: selectivity index
[7] = tested on: bloodstream form T. b. brucei (strain 221); assay: microbe, parasite or virus in culture; details: Trypanosoma brucei, mean of triplicate experiments ± SEM; for EC50: read-out: T. brucei EC50, cultured bloodstream form; for EC90: read-out: T. brucei EC90, cultured bloodstream form
[8] = tested on: T. cruzi (CL Brener strain) epimastigotes; assay: microbe, parasite or virus in culture; details: Trypanosoma cruzi; for EC50: read-out: T. cruzi EC50; for EC90: read-out: T. cruzi EC90
[9] = Cytotoxicity against cultured L6 cells (resazurin); details: rat, L6 rat skeletal myoblast cells, L6 Cells CC50, mean of triplicate experiments ± SEM
[10] = Cytotoxicity in Huh5-2 replicon cells (intracellular ATP levels); details: human
[11] = tested on: bloodstream form T. b. brucei (strain 221); details: earlier lead compounds; read-out: T. brucei EC50; cited from earlier work
[12] = tested on: rat skeletal myoblast L6 cells; assay: Cytotoxicity against cultured L6 cells (resazurin); details: read-out: L6 Cells CC50; mean of triplicate experiments ± SEM

Structure (SMILES) | EC50 [1] | EC50 [2] | EC50 [3] | EC50 [4] | increase in activity against T. brucei relative to parent compound [5] | SI (CC50 for L6 cells / EC50 for T. brucei) [5] | SI (CC50 for L6 cells / EC50 for T. cruzi) [6] | EC50 [7] | EC90 [7] | EC50 [8] | EC90 [8] | CC50 at 6 days [9] | CC50 at 72 h [10] | EC50 [11] | EC50 [5] | CC50 [12]
CCN1C(=O)N(CC(=O)NO)C(=O)C12CCC(c1ccccc1)CC2 (stereo not drawn) [Compound 40, N-Hydroxy-2-(1-ethyl-2,4-dioxo-8-phenyl-1,3-diazaspiro [4.5]decan-3-yl)acetamide] | 0.52 ± 0.08 µM | 0.31 ± 0.13 µM | 6.67 ± 0.05 µM | 0.68 ± 0.03 µM | 30 fold | 1870 | 48 | 0.029 ± 0.001 µM | 0.055 ± 0.003 µM | 1.12 ± 0.03 µM | 1.86 ± 0.04 µM | 54.3 ± 5.9 µM | 10.6 ± 0.12 µM |  |  | 
O=C(CN1C(=O)NC2(CCCCc3ccccc32)C1=O)NO (stereo not drawn) [IV] |  |  |  |  |  |  |  |  |  |  |  |  |  | 0.4 ± 0.04 µM |  | 
O=C(CN1C(=O)N(Cc2ccccc2)C2(CCCCC2c2ccccc2)C1=O)NO (stereo not drawn) [Compound 42, N-Hydroxy-2-(1-benzyl-2,4-dioxo-6-phenyl-1,3-diazaspiro [4.5]decan-3-yl)acetamide] | > 10 µM | 0.45 ± 0.02 µM | 4.68 ± 0.23 µM | 1.37 ± 0.08 µM | 23 fold | 62 | 6 | 0.19 ± 0.01 µM | 0.237 ± 0.003 µM | 1.95 ± 0.05 µM | 3.12 ± 0.12 µM | 11.9 ± 0.7 µM | 9.37 ± 0.182 µM |  | 0.191 ± 0.006 µM | 
CC(C(=O)NO)N1C(=O)NC2(CCC(c3ccccc3)CC2)C1=O (stereo not drawn) [Compound 49, N-(Hydroxy)-2-(2,4-dioxo-8-phenyl-1,3-diazaspiro [4.5]decan-3-yl)propanamide] | > 10 µM | > 10 µM | 7.98 ± 0.18 µM | > 10 µM |  | 270 |  | 0.88 µM | 1.42 ± 0.19 µM | > 30 µM |  | > 200 µM | > 10 µM |  | 0.876 ± 0.051 µM | 233 ± 33 µM
O=C(CN1C(=O)NC2(CCc3ccccc32)C1=O)NO (stereo not drawn) [III] |  |  |  |  |  |  |  |  |  |  |  |  |  | 0.44 ± 0.08 µM |  | 
O=C(CN1C(=O)NC2(CCC(c3ccccc3)CC2)C1=O)NO (stereo not drawn) [Compound 36, N-Hydroxy-2-(2,4-dioxo-8-phenyl-1,3-diazaspiro [4.5]decan-3-yl) acetamide] | 0.75 ± 0.13 µM | 0.39 ± 0.01 µM | > 10 µM | 4.64 ± 0.11 µM |  | 70 |  | 0.88 ± 0.1 µM | 1.18 ± 0.04 µM | > 30 µM |  | 60.8 ± 8.2 µM | 75.4 ± 8.46 µM |  |  | 
CC(C(=O)NO)N1C(=O)N(C)C2(CCC(c3ccccc3)CC2)C1=O (stereo not drawn) [Compound 53, N-(hydroxy)-2-(1-methyl-2,4-dioxo-8-phenyl-1,3-diazaspiro [4.5]decan-3-yl)propanamide] | > 10 µM | 0.28 ± 0.02 µM | > 10 µM | 2.45 ± 0.22 µM |  | 590 | 11 | 0.154 ± 0.009 µM | 0.281 ± 0.006 µM | 8.5 ± 0.23 µM | 11.9 ± 0.5 µM | 90.5 ± 7.3 µM | 100 ± 3.57 µM |  |  | 
